Tests used:
CCK2 receptor [1] = biological target: T1, CCK2 receptor (Homo sapiens, UniProt P32239); test: CCK2 binding assay ([125I]-BH-CCK-8S displacement, HEKZFP membranes); details: membranes of doxycycline-induced HEKZFP cells; 20 pM [125I]-BH-CCK-8S; 60 min at 21±3° C.; read-out: CCK2 pKi (converted)
T1 construct: analyzed for ZFP expression as well as CCK2R induction upon addition of doxycycline to the culture medium; endogenous in cells
T1 sequence (P32239 1-447): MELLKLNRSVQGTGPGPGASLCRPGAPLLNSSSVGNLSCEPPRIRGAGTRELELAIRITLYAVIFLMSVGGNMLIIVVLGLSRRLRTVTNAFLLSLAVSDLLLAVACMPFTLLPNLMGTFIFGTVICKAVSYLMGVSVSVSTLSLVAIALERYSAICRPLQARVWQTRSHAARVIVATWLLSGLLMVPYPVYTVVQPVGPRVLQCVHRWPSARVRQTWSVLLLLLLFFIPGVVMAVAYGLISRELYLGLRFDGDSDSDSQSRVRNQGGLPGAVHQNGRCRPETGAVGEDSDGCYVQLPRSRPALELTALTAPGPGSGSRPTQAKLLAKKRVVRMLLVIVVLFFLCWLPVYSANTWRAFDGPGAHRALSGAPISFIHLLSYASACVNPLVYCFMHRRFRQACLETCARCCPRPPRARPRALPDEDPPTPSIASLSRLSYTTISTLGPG

CCK2 receptor [2] = biological target: T2, CCK2 receptor (Cavia porcellus, UniProt H0VZC5); test: Guinea-pig gastric corpeal muscle assay (pentagastrin-induced contraction); details: isolated guinea-pig gastric corpeal muscle strips, pentagastrin concentration-response curves
T2 construct: strips of muscle were dissected and suspended in isolated tissue organ baths; from tissue; host or cells: guinea-pig gastric corpeal muscle strips
T2 sequence (H0VZC5 1-426): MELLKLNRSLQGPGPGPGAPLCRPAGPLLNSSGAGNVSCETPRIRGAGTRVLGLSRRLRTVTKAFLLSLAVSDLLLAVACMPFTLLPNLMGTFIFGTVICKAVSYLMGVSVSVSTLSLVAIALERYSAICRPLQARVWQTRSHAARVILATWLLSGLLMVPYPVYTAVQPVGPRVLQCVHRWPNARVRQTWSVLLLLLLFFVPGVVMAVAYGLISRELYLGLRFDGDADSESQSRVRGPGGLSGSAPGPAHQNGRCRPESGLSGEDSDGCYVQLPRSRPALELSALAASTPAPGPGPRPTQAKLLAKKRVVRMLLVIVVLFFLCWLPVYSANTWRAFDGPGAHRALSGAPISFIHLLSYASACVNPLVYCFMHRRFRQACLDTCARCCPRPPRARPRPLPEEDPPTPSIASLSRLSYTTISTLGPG
Protocol: B. Guinea-Pig Gastric Corpeal Muscle Assay
CCK2 receptor-mediated muscle contraction was measured in an isolated muscle-strip assay of guinea-pig gastric corpeal muscle according to the methods described by Roberts et al. (S. P. Roberts, E. A. Harper, G. F. Watt, V. P. Gerskowitch, R. A. Hull, N. P. Shankley, and J. W. Black, Br. J. Pharmacol., 1996, 118(7):1779-1789). In brief, strips of muscle were dissected and suspended in isolated tissue organ baths for isotonic muscle contraction recording. The baths, containing Krebs-Henseleit solution, were maintained at 24° C. and gassed continuously with 95% O2 and 5% CO2. CCK1 receptors known to be present in this assay were blocked using a selective concentration of a suitable CCK1 receptor antagonist (e.g. 2-NAP). The effectiveness of the test compounds was assessed by measuring their effect on contractile concentration-response curves obtained using a well-characterized surrogate for the hormone gastrin (pentagastrin).

Ki (CCK2 receptor [1]): 31.6 nM | behaviour in the muscle contraction assay (mode of antagonism) (CCK2 receptor [2]): competitive antagonist | Kb (CCK2 receptor [2]; CCK1 receptors blocked (e.g. 2-NAP), 24° C.): 1.58 nM
Structure (SMILES): O=C(N[C@@H](Cc1ccc(Cl)c(Cl)c1)C(=O)O)c1ccc(I)cc1NS(=O)(=O)c1cccc2nsnc12 [Example 2, (S)-2-[2-(Benzo[1,2,5]thiadiazole-4-sulfonylamino)-4-iodo-benzoylamino]-3-(3,4-dichloro-phenyl)-propionic acid]

— patent publication US7855292B2, “Sulfonamide compounds” (Janssen Pharmaceutica NV, priority 2004, dated 2010)
